Test results taken from ChEMBL document CHEMBL1629573, “OPT-80 eliminates Clostridium difficile and is sparing of bacteroides species during treatment of C. difficile infection” (2009).
In brackets after ≈: the same amount, converted by molar mass. Activity calls are given as the source filed them. The calls are words filed in the database; no cut-off is given here.

Tests used:
Clostridioides difficile [1] = assay: Antimicrobial activity against Clostridium difficile obtained from patient with Clostridium difficile infection assessed as bacterial count per gram of wet stool at 100 mg/kg, po BID measured on day 10 by the two-tailed Wilcoxon matched-pair, signed-rank test; type: functional, organism-based; set-up: dose 100 mg/kg; conditions: Feces
Bacteroides sp. [2] = assay: Antimicrobial activity against […] Bacteroides sp.; type: functional
Clostridioides difficile [3] = assay: Antimicrobial activity against Clostridium difficile obtained from patient with Clostridium difficile infection assessed as bacterial count per gram of wet stool at 200 mg/kg, po BID measured on day 10 by the two-tailed Wilcoxon matched-pair, signed-rank test; type: functional, organism-based; set-up: dose 200 mg/kg; conditions: Feces
Clostridioides difficile [4] = assay: Antimicrobial activity against Clostridium difficile obtained from patient with Clostridium difficile infection assessed as bacterial count per gram of wet stool at 200 mg/kg, po BID measured at 21 to 28 days by the two-tailed Wilcoxon matched-pair, signed-rank test; type: functional, Feces
Clostridioides difficile [5] = assay: Antimicrobial activity against Clostridium difficile obtained from patient with Clostridium difficile infection assessed as reduction in bacterial cytotoxin B in patients at 100 mg/kg, po BID measured at 21 to 28 days by the two-tailed Wilcoxon matched-pair, signed-rank test; type: functional, organism-based; set-up: dose 100 mg/kg
Clostridioides difficile [6] = assay: Antimicrobial activity against Clostridium difficile obtained from patient with Clostridium difficile infection assessed as bacterial count per gram of wet stool at 100 mg/kg, po BID measured on day 4 by the two-tailed Wilcoxon matched-pair, signed-rank test; type: functional, organism-based; set-up: dose 100 mg/kg; conditions: Feces
Clostridioides difficile [7] = assay: Antimicrobial activity against Clostridium difficile; type: functional
Clostridioides difficile [8] = assay: Antimicrobial activity against Clostridium difficile obtained from patient with Clostridium difficile infection assessed as bacterial count per gram of wet stool at 200 mg/kg, po BID measured on day 8 by the two-tailed Wilcoxon matched-pair, signed-rank test; type: functional, organism-based; set-up: dose 200 mg/kg; conditions: Feces
Bacteroides sp. [9] = assay: Antimicrobial activity against […] gram-negative Bacteroides sp.; type: functional
Clostridioides difficile [10] = assay: Antimicrobial activity against Clostridium difficile obtained from patient with Clostridium difficile infection assessed as bacterial count per gram of wet stool at 50 mg/kg, po BID measured on day 10 by the two-tailed Wilcoxon matched-pair, signed-rank test; type: functional, organism-based; set-up: dose 50 mg/kg; conditions: Feces
Clostridioides difficile [11] = assay: Antimicrobial activity against Clostridium difficile obtained from patient with Clostridium difficile infection assessed as reduction in bacterial cytotoxin B in patients at 200 mg/kg, po BID measured at 21 to 28 days by the two-tailed Wilcoxon matched-pair, signed-rank test; type: functional, organism-based; set-up: dose 200 mg/kg
Bacteroides [12] = assay: Antimicrobial activity against Bacteroides group obtained from patient with Clostridium difficile infection assessed as bacterial count per gram of wet stool at 50 mg/kg, po BID measured on day 10 by the two-tailed Wilcoxon matched-pair, signed-rank test; type: functional, Feces
Bacteroides [13] = assay: Antimicrobial activity against Bacteroides group obtained from patient with Clostridium difficile infection assessed as bacterial count per gram of wet stool at 200 mg/kg, po BID measured on day 10 by the two-tailed Wilcoxon matched-pair, signed-rank test; type: functional, Feces
Bacteroides [14] = assay: Antimicrobial activity against Bacteroides group obtained from patient with Clostridium difficile infection assessed as bacterial count per gram of wet stool at 100 mg/kg, po BID measured on day 10 by the two-tailed Wilcoxon matched-pair, signed-rank test; type: functional, Feces
Clostridioides difficile [15] = assay: Antimicrobial activity against Clostridium difficile obtained from patient with Clostridium difficile infection assessed as bacterial count per gram of wet stool at 50 mg/kg, po BID measured on day 4 by the two-tailed Wilcoxon matched-pair, signed-rank test; type: functional, organism-based; set-up: dose 50 mg/kg; conditions: Feces
Clostridioides difficile [16] = assay: Antimicrobial activity against Clostridium difficile obtained from patient with Clostridium difficile infection assessed as bacterial count per gram of wet stool at 50 mg/kg, po BID measured at 21 to 28 days by the two-tailed Wilcoxon matched-pair, signed-rank test; type: functional, Feces
Clostridioides difficile [17] = assay: Antimicrobial activity against Clostridium difficile obtained from patient with Clostridium difficile infection assessed as bacterial count per gram of wet stool at 100 mg/kg, po BID measured at 21 to 28 days by the two-tailed Wilcoxon matched-pair, signed-rank test; type: functional, Feces
Clostridioides difficile [18] = assay: Antimicrobial activity against Clostridium difficile obtained from patient with Clostridium difficile infection assessed as bacterial count per gram of wet stool at 200 mg/kg, po BID measured on day 4 by the two-tailed Wilcoxon matched-pair, signed-rank test; type: functional, organism-based; set-up: dose 200 mg/kg; conditions: Feces
Bacteroides [19] = assay: Antimicrobial activity against Bacteroides group obtained from patient with Clostridium difficile infection assessed as bacterial count per gram of wet stool at 125 mg/kg, po administered QID measured on day 10 by the two-tailed Wilcoxon matched-pair, signed-rank test; type: functional, Feces
Clostridioides difficile [20] = assay: Antimicrobial activity against Clostridium difficile obtained from patient with Clostridium difficile infection assessed as bacterial count per gram of wet stool at 125 mg/kg, po BID measured on day 4 by the two-tailed Wilcoxon matched-pair, signed-rank test; type: functional, organism-based; set-up: dose 125 mg/kg; conditions: Feces
Clostridioides difficile [21] = assay: Antimicrobial activity against Clostridium difficile obtained from patient with Clostridium difficile infection assessed as bacterial count per gram of wet stool at 125 mg/kg, po BID measured on day 10 by the two-tailed Wilcoxon matched-pair, signed-rank test; type: functional, organism-based; set-up: dose 125 mg/kg; conditions: Feces
Clostridioides difficile [22] = assay: Antimicrobial activity against Clostridium difficile obtained from patient with Clostridium difficile infection assessed as bacterial count per gram of wet stool at 125 mg/kg, po BID measured at 21 to 28 days by the two-tailed Wilcoxon matched-pair, signed-rank test; type: functional, Feces

CCc1c(Cl)c(O)c(Cl)c(O)c1C(=O)O[C@H]1[C@H](O)[C@H](OC)[C@H](OC/C2=C\C=C\C[C@H](O)/C(C)=C/[C@H](CC)[C@@H](O[C@@H]3OC(C)(C)[C@@H](OC(=O)C(C)C)[C@H](O)[C@@H]3O)/C(C)=C/C(C)=C/C[C@@H]([C@@H](C)O)OC2=O)O[C@@H]1C [FIDAXOMICIN]
Activity (Clostridioides difficile [1]): Active
MIC90 (Bacteroides sp. [2]): > 1020 µg/mL
Activity (Clostridioides difficile [3]): Active
log10cfu (Clostridioides difficile [4]): 3.1
Activity (Clostridioides difficile [5]): Active
Activity (Clostridioides difficile [6]): Active
MIC90 (Clostridioides difficile [7]): 0.12 µg/mL (≈ 0.113 µM)
Activity (Clostridioides difficile [8]): Active
MIC90 (Bacteroides sp. [9]): > 1020 µg/mL
Activity (Clostridioides difficile [10]): Active
Activity (Clostridioides difficile [11]): Active
log10cfu (Bacteroides [12]): 8.2
log10cfu (Bacteroides [13]): 7.3
log10cfu (Bacteroides [14]): 6.3
Activity (Clostridioides difficile [15]): Active
log10cfu (Clostridioides difficile [16]): 3.9
log10cfu (Clostridioides difficile [17]): 3.6
Activity (Clostridioides difficile [18]): Active

CN[C@H](CC(C)C)C(=O)N[C@H]1C(=O)N[C@@H](CC(N)=O)C(=O)N[C@H]2C(=O)N[C@H]3C(=O)N[C@H](C(=O)N[C@H](C(=O)O)c4cc(O)cc(O)c4-c4cc3ccc4O)[C@H](O)c3ccc(c(Cl)c3)Oc3cc2cc(c3O[C@@H]2O[C@H](CO)[C@@H](O)[C@H](O)[C@H]2O[C@H]2C[C@](C)(N)[C@H](O)[C@H](C)O2)Oc2ccc(cc2Cl)[C@H]1O [VANCOMYCIN]
log10cfu (Bacteroides [19]): 3.6
Activity (Clostridioides difficile [20]): Active
Activity (Clostridioides difficile [21]): Active
log10cfu (Clostridioides difficile [22]): 5.4
